Experimental data: article PMC11167047 (Cell Death Discovery, 2024)
Where two headings read alike, the source gives them in different places.

How the values were obtained:
DYRK4 = target: T1, DYRK4 (Homo sapiens, UniProt Q9NR20); test: kinome screen (33PanQinase); format: biochemical
T1 construct: purchased Reaction Biology Europe GmbH (formerly ProQinase)
T1 sequence (Q9NR20 1-520): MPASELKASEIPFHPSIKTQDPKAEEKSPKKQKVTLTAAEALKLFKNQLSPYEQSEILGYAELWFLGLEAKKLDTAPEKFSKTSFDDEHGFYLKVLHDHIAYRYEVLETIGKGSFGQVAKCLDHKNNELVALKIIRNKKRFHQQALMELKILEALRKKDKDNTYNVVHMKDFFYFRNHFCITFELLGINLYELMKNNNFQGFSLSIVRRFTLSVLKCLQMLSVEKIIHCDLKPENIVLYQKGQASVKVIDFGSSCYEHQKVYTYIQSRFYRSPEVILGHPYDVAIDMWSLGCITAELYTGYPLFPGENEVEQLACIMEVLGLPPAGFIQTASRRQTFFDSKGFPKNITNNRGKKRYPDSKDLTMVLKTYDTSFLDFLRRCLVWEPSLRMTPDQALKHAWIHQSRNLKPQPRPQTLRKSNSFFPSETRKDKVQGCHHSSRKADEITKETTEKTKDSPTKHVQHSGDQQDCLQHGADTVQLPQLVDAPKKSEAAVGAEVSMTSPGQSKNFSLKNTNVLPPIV
Method: (§1) The Kinome Screening was performed by Reaction Biology Europe GmbH (http://reactionbiology.com; Freiburg i. Br., Germany). […] A kinase inhibition profile of the three meriolins was determined by measuring residual activity at two concentrations each in single values in 335 wild-type protein kinase assays.
The residual activity was calculated as: Res.Activity%=100x(Signalofcompound−lowcontrol/highcontrol−lowcontrol)

[1] = system: FL169 follicular lymphoma cells; conditions: read-out: IC50 (FL169); primary patient cells, 24 h
From the text: (§4) For chronic lymphocytic leukemia, mononuclear cells were isolated from peripheral blood using a Ficoll gradient (GE Healthcare). Primary cells from other lymphoma entities were isolated as previously described [80]. All cells were cryopreserved after isolation and thawed as previously described [81].
(§5) The resazurin reduction assay, which is also known as AlamarBlue® assay, was used for the determination of cell viability in all cytotoxicity determinations shown in the present work, as previously described [22]. Briefly, cells were seeded at a specific density depending on the incubation time (24 h: 1 × 10^6 cells/ml) in a 96-well plate and incubated with increasing compound concentrations (0.01–30 µM). After the specified treatment time, resazurin (Sigma, #R7017) was added to a final concentration of 40 µM. […] The viability of control cells was set to 100% and all other values were normalized to the control condition, the dose-response curves were then fitted with Prism v7.01 (GraphPad software, La Jolla, CA, USA).

HL60 = conditions: read-out: IC50 (HL60); cytotoxicity, 24 h
Method: (§6) The resazurin reduction assay, which is also known as AlamarBlue® assay, was used for the determination of cell viability in all cytotoxicity determinations shown in the present work, as previously described [22]. Briefly, cells were seeded at a specific density depending on the incubation time (24 h: 1 × 10^6 cells/ml) in a 96-well plate and incubated with increasing compound concentrations (0.01–30 µM). After the specified treatment time, resazurin (Sigma, #R7017) was added to a final concentration of 40 µM. […] The viability of control cells was set to 100% and all other values were normalized to the control condition, the dose-response curves were then fitted with Prism v7.01 (GraphPad software, La Jolla, CA, USA). The reduction of resazurin to resorufin is proportional to aerobic respiration; therefore, it is used as a measure for the cell viability and cytotoxicity of a tested compound.

SUPB15 = conditions: read-out: IC50 (SUPB15); cytotoxicity, 24 h
Method: as §6

[2] = system: CLL17 chronic lymphocytic leukemia cells; conditions: read-out: IC50 (CLL17); primary patient cells, 24 h
From the text: as §4, §5

cyclin B1 expression = test: immunoblotting of cyclin B1 in Ramos cells; format: cell-based, human; conditions: 24 h
Method: (§2) Cells were seeded at a density of 2 × 10^6 cells, treated as specified and harvested by centrifugation at 3000 rpm for 5 min, followed by freezing in liquid nitrogen. The cell pellets were thawed on ice and quick-frozen and defrozen in liquid nitrogen for three times, then lysed on ice in lysis buffer (20 mM Tris-HCl, 150 mM NaCl, 1% v/v Triton X-100, 0.5 mM EDTA, 10 mM NaF, 2.5 mM Na4P2O7, protease inhibitor (Sigma, #P2714)) for 30 min, accompanied by vortexing. Subsequently, centrifugation 13,300 rpm for 15 min purified cell lysates from cell debris. The supernatant was transferred to a new tube and the protein concentration was determined by Bradford assay. The samples were diluted with sample buffer. SDS-Page and Western Blot were conducted in accordance with standard workflows. […] The antibody baths were stored at 4 °C and re-used.
(§3) The density of the individual protein band was determined using Image Studio^TM Lite Version 5.2. The density of each protein was divided by the average of all bands of this protein. The ratios of the protein of interest were normalized to the ratio of the respective loading control. To determine the fold change, each normalized ratio was divided by the normalized band of the control line (untreated cells). Fold change is 1 for the control line, n ≥ 2. The results are shown as mean ± standard deviation and were visualized with GraphPad Prism 7.

K562 = conditions: read-out: IC50 (K562); cytotoxicity, 24 h
Method: as §6

HPBALL = conditions: read-out: IC50 (HPBALL); cytotoxicity, 24 h
Method: as §6

[3] = system: CLL68 chronic lymphocytic leukemia cells; conditions: read-out: IC50 (CLL68); primary patient cells, 24 h
From the text: as §4, §5

[4] = system: CDK9 and cyclin T1 protein levels; test: immunoblotting of CDK9 and cyclin T1 in Ramos cells; format: cell-based, human; conditions: 0.1 and 1 µM, 4-24 h
Method: as §2, §3

[5] = system: CLL16 chronic lymphocytic leukemia cells; conditions: read-out: IC50 (CLL16); primary patient cells, 24 h
From the text: as §4, §6

[6] = system: retinoblastoma (RB) protein phosphorylation; test: immunoblotting of phospho-RB in Ramos cells; format: cell-based, human; conditions: for phosphorylation of RB at p-Ser249 and p-Thr252: 0.1 or 1 µM (R547 1 µM)
Method: as §2, §3

KOPTK1 = conditions: read-out: IC50 (KOPTK1); cytotoxicity, 24 h
Method: as §6

HeLa cells = test: EdU incorporation by microscopy; format: cell-based, human; conditions: 24 h, non-lethal dose (IC25)
Method: The EdU-assay, utilizing the EdU-click 488 kit from Baseclick GmbH (#BCK-TCell-FC488) was performed according to manufacturer’s instructions. The EdU-assay is employed to measure the incorporation of 5-ethynyl-2’-deoxyuridine (EdU) into DNA, providing a means to assess cell proliferation. Cell proliferation involves the synthesis of new DNA during the S phase of the cell cycle. When cells are exposed to 5-EdU, they incorporate the compound into their DNA at thymidine bases during S phase. A fluorophore-labeled azide reacts with the incorporated EdU, enabling its detection through microscopy (sigmaaldrich.com). The experimental process involves seeding cells and allowing them to grow to the desired density, applying the indicated treatments, and subsequently adding EdU to the media. After fixation and permeabilization, the EdU detection, along with DAPI-stained nuclei, is carried out using fluorescence microscopy.

[7] = system: 335 wild-type protein kinases; test: kinome screen, selectivity score; format: biochemical
Method: as §1
The selectivity score was calculated as: SelectivityScore=Countofdatapoints<50%/(Totalnumberofdatapoints)

[8] = system: FL100 follicular lymphoma cells; conditions: read-out: IC50 (FL100); primary patient cells, 24 h
From the text: as §4, §5

Ramos = test: AlamarBlue viability assay; format: cell-based, human; conditions: cytotoxicity, 24 h, read-out: IC50 (Ramos)
Method: as §6

| Compound | residual kinase activity (DYRK4; 0.3 µM) | IC50 [1] [nM] | IC50 (HL60) [nM] | IC50 (SUPB15) [nM] | IC50 [2] [nM] | expression of cyclin B1 (cyclin B1 expression) | IC50 (K562) [nM] | IC50 (HPBALL) [nM] | IC50 [3] [nM] | CDK9 and cyclin T1 protein levels [4] | IC50 [5] [nM] | phosphorylation of RB at p-Ser612 and p-Thr821 ([6]; 0.1 and 1 µM, up to 24 h) | phosphorylation of RB at p-Ser249 and p-Thr252 ([6]; up to 24 h) | IC50 (KOPTK1) [nM] | EdU incorporation (proliferation) reduced to (HeLa cells) [%] | Selectivity Score (< 50% residual activity) ([7]; 0.3 µM) | IC50 [8] [nM] | further results |
| --- | --- | --- | --- | --- | --- | --- | --- | --- | --- | --- | --- | --- | --- | --- | --- | --- | --- | --- |
| c1ccc(CNc2cc(-c3c[nH]c4ncccc34)ccn2)cc1 [meriolin 36] | 66 % of control | 100 | 1230 | 1650 | 110 | rather increased the expression of cyclin B1 | 940 | 3440 | 420 | relatively stable | 200 | This effect was not observed | no effect | 1220 | 10 | 0.397 | 90 | residual kinase activity (DYRK4; 3 µM): 22 % of control; phosphorylation of RB at Ser612 ([6]; 0.1 and 1 µM): increase of the phosphorylation; phosphorylation of RB at p-Thr821 ([6]; 0.1 and 1 µM (R547 1 µM), up to 24 h): no notable change; Selectivity Score (< 50% residual activity) ([7]; 3 µM): 0.752 |
| COc1ccnc2[nH]cc(-c3cc(N)nc(N)c3)c12 [meriolin 16] | 7 % of control | 2820 | 10 | 20 | 50 | reduced the expression of cyclin B1 | 40 | 20 | 60 | decrease | 60 | no longer phosphorylated | reduced the phosphorylation | 10 | 10 | 0.284 | 60 | IC50 (Ramos; as given in text): 20 to 30 nM; IC50 (Ramos; listed as Meriolin 16): 20 nM; IC50 (Ramos): 30 nM; residual kinase activity (DYRK4; 0.03 µM): 39 % of control; phosphorylation of RB at p-Ser612 and p-Thr821 ([6]; 0.1 and 1 µM, up to 24 h, listed as Meriolin 16): loss of the phosphorylations; Selectivity Score (< 50% residual activity) ([7]; 0.03 µM): 0.140 |
